In patent US20260232759A1, “PEPTIDES THAT INHIBIT INFECTION BY SARS-COV-2, THE VIRUS THAT CAUSES COVID-19 DISEASE” (Wisconsin Alumni Research Foundation, priority 2021, published 2026) one finds IC50 and IC90 data, which are given here for six substances.

This assay concerns the target T1, SARS-CoV-2 S (Severe acute respiratory syndrome coronavirus 2, UniProt P0DTC2).
T1 construct: expressed in transfected cells
Kind of assay: β-Gal complementation-based cell-cell fusion assay (S-protein-mediated fusion). The note with it: for IC90: read-out: 90% inhibitory concentration (IC90), inhibition of S-mediated fusion.

Setting [1] is: 50% inhibitory concentration (IC50), inhibition of S-mediated fusion.
[2] abbreviates: IC50, inhibition of S-mediated fusion.

Starred links: 1 amine or outer side, 2 acyl side, 3 side chain; linkers in the order of their positions; H or OH if unused. Non-standard residues stand in square brackets, D forms with d. *: point of attachment. X2 = CC(C)CCC[C@@H](C)[C@H]1CC[C@H]2[C@@H]3CC=C4C[C@@H](OC(=O)CCOCCOCCOCCOCCNC(=O)C*)CC[C@]4(C)[C@H]3CC[C@]12C; X1 = O=C([C@H]1CNC[C@@H]1N[*:1])[*:2]; β3hE = N[C@@H](CCC(=O)O)CC(=O)O; β3hQ = NC(=O)CC[C@H](N)CC(=O)O; β3hD = NC(CC(=O)O)CC(=O)O; βAla = NCCC(=O)O

Take “Ac-[β3hD]IS[β3hQ]INASVVNIEYEI[X1]KLEEVAKKLEESLI[β3hD]L[β3hQ]ELGSGSGC(X2)-NH2 [α/β-SARS2 HRC QE-5]”: under setting [1], the IC50 (commonly the concentration at which inhibition is half-maximal) is about 1000 nM.

Under setting [1], “Ac-[β3hD]IS[β3hQ]INASVVNIEYEI[X1]KLEEVA[X1]KLE[β3hE]SLI[β3hD]L[β3hQ]ELGSGSGC(X2)-NH2 [α/β-SARS2 HRC QE-8]” displayed an IC50 of about 100 nM.

In turn, “Ac-[β3hD]IS[β3hQ]INASVVNI[β3hE]YEI[X1]KLEEVA[X1]KLEESLI[β3hD]L[β3hQ]EL[βAla]SGS[βAla]C(X2)-NH2 [α/β-SARS2 HRC QE-15]” came in with a half-inhibitory concentration (IC50) under setting [2] of about 50 nM.

Turning to “Ac-[β3hD]IS[β3hQ]INASVVNIEYEI[X1]KLEEVA[X1]KLEESLI[β3hD]L[β3hQ]ELGSGSGC(X2)-NH2 [α/β-SARS2 HRC QE-7]”, the IC90 was about 100 nM. Further, the IC50 under setting [1] was about 20 nM. The substance also displayed an IC50 under setting [2] of about 10 nM.

As for “Ac-[β3hD]IS[β3hQ]INASVVNIEYEI[X1]KLEEVA[X1]KLEESLI[β3hD]L[β3hQ]EL[βAla]SGS[βAla]C(X2)-NH2 [α/β-SARS2 HRC QE-17]”, the IC50 under setting [2] is about 10 nM.

In the case of “Ac-[β3hD]IS[β3hQ]INASVVNIEYEIKKLEEVA[X1]KLEESLI[β3hD]L[β3hQ]ELGSGSGC(X2)-NH2 [α/β-SARS2 HRC QE-6]”, the IC90 was about 100 nM. This substance also showed a concentration for half-maximal inhibition (IC50) under setting [1] of about 20 nM.
